# “Also recorded” adds a separate entry of the source.
# What was measured:
# Assay type in all cases: in vivo, human
# [1] = system: patients presumed to have NASH; assay: Phase 2a study: liver volume and liver size by MRI; conditions: for Percent Change from Baseline in Liver: liver volume
# Excerpt: (§1) A Phase 2a, randomized, double-blind, placebo-controlled study (ClinicalTrials.gov Identifier: NCT03823703) was begun to assess the efficacy of two dose levels of miricorilant versus placebo in reducing liver fat in patients who were presumed to have non-alcoholic steatohepatitis (NASH), that presumption based on blood tests and noninvasive measures. Written informed consent was obtained before initiating any study-mandated procedures. The full study was planned to enroll approximately 120 patients, randomized 1:1:1 to receive daily 900 mg miricorilant:600 mg miricorilant: matching placebo.
# Patients were randomized in a 1:1:1 ratio to 600 mg miricorilant, 900 mg miricorilant, or placebo. Study drug was administered once daily, orally with 8 oz (240 mL) of water, along with food. Patients were instructed to take a total of 6 tablets at approximately the same time each day. Those in the 600 miricorilant group took 4 miricorilant tablets and 2 placebo tablets. Those in the 900 miricorilant group took 6 miricorilant tablets. Those in the placebo group took 6 placebo tablets. For the week 6 visit, patients were instructed to not take their daily study drug prior to the visit, but to bring their study drug to the site with them so that the study drug can be administered at the site.
# MRI images showing the liver of a patient before (left-hand images) and after receiving daily 600 mg miricorilant (right-hand images) are presented in FIGS. 3A, 3B, and 3C.
# [2] = system: patients with presumed NASH; assay: Example 6 study: transaminases and safety laboratory values
# Experimental: This study was a double-blind, multi-center, placebo-controlled, randomized 3-arm phase 2a study (NCT03823703) conducted to assess the safety and efficacy of miricorilant in reducing liver fat content (LFC) in patients with presumed NASH. Adult patients (18-75 years) with presumed NASH were randomized 1:1:1 to miricorilant 600 mg daily, miricorilant 900 mg daily, or placebo for 12 weeks. […] Abbreviations used in this Example and in the Figures include: ALP, alkaline phosphatase; ALT, alanine aminotransferase; AST, aspartate aminotransferase; ELF, enhanced liver fibrosis; LFC, liver fat content; NASH, non-alcoholic steatohepatitis; ULN, upper limit of normal; AUC, area under the concentration-time curve; Cmax, maximum concentration; EOT, end of treatment; GGT, gamma-glutamyltransferase; INR, international normalized ratio; MRI-PDFF, magnetic resonance imaging-proton density fat fraction; pt, patient; SD, standard deviation; ULN, upper limit of normal; Wk, week.
# Key inclusion criteria included that the patients be adults between 18-75 years old; be presumed to suffer from NASH with fibrosis; have LFC as measured by MRI-PDFF≥8%; have levels of AST<5×ULN and ALT<5×ULN; and have eGFR>60 mL/min/1.73 m^2. Primary endpoints included relative change in LFC from baseline by MRI-PDFF. Secondary endpoints included change from baseline in AST, ALT, GGT, and change from baseline in ELF score.
# Patients were divided into different cohorts and received different regimens of miricorilant. The cohorts included patients receiving 30 mg mircorilant once per day; patients receiving 50 mg mircorilant once per day; patients receiving 100 mg mircorilant once per day; patients receiving 150 mg mircorilant once per day; patients receiving 100 mg mircorilant on Mondays, Wednesdays, and Fridays; patients receiving 100 mg mircorilant on Mondays and Fridays; and patients receiving 200 mg mircorilant once per week. Patients receiving 100 mg mircorilant on Mondays and Fridays were termed “Cohort 6”.
# FIG. 13 provides a plot of MRI-PDFF (top line beginning at week 0) and liver enzyme alanine aminotransferase (ALT; bottom line beginning at week 0) for a patient who received miricorilant treatment that included a cessation of miricorilant treatment from week 7 to week 10. […] GGT was elevated at baseline (peak 88 U/L at Wk 10); at other weeks it was below baseline. Eosinophils (%) baseline 7.3, decreased to 2.2 at Wk 2 and increased Wk 3 (peak 4.3), decreased Wk 8 (2.0) and stable until EOT.
# [3] = system: patients presumed to have NASH; assay: Phase 2a study: liver enzymes (ALT, AST), bilirubin, Hy's Law (eDISH plot)
# Excerpt: as §1
# Other endpoints monitoring and assessment for safety for all study participants. Safety endpoints included the incidence of TEAEs, AEs, and SAEs; changes from Baseline in clinical laboratory tests (hematology and chemistry panels); changes from Baseline in physical examinations and vital sign measurements; changes from Baseline in ECG parameters.
# Liver enzyme levels were measured in the patients.
# Bilirubin and liver enzyme levels were measured in the patients at baseline. […] Bilirubin and ALT levels that combined are placed in the upper right quadrant of the graph, labelled “Hy's Law Quadrant”, indicate that the patient is at high risk of severe hepatocellular injury. The cholestasis quadrant is the location on the graph where bilirubin levels are greater than twice the ULN for bilirubin. The “Temple's Corollary” quadrant is the location on the graph where peak ALT levels are greater than 3 times the ULN for ALT, but bilirubin levels are less than twice the ULN for bilirubin.
structure (smiles),measurement,setting,value
"O=c1[nH]c(=O)c(Cc2cccc(C(F)(F)F)c2)c([C@H]2CC[C@H](c3ccccc3)CC2)[nH]1 [miricorilant, (E)-6-(4-Phenylcyclohexyl)-5-(3-trifluoromethylbenzyl)-1H-pyrimidine-2,4-dione]",Follow-Up Liver Volume,"[1]; Patient 1 (responder), 900 mg, baseline 1606 mL",1303 mL
same,Follow-Up Liver Volume,"[1]; Patient 2 (responder), 900 mg, baseline 1675 mL",1314 mL
same,Follow-Up Liver Volume,"[1]; Patient 3 (responder), 900 mg, baseline 3857 mL",3113 mL
same,Follow-Up Liver Volume,"[1]; Patient 4 (responder), 600 mg, baseline 1899 mL",1505 mL
same,Percent Change from Baseline in Liver,"[1]; Patient 1 (responder), 900 mg",−18.9%
same,Percent Change from Baseline in Liver,"[1]; Patient 2 (responder), 900 mg",−21.6%
same,Percent Change from Baseline in Liver,"[1]; Patient 3 (responder), 900 mg",−19.3%
same,Percent Change from Baseline in Liver,"[1]; Patient 4 (responder), 600 mg",−20.7%
same,Hepatic transaminase levels,"[2]; 100 mg twice weekly, over 12 weeks",without an associated rise
same,Safety and tolerability,[2]; including 100 mg twice weekly,"safe, well tolerated"
same,Eosinophils (%),"[2]; one patient (FIG. 13), Wk 2, baseline 7.3",2.2%
same,Eosinophils (%) peak,"[2]; one patient (FIG. 13), Wk 3",4.3%
same,Eosinophils (%),"[2]; one patient (FIG. 13), Wk 8, stable until EOT",2.0%
same,GGT peak,"[2]; one patient (FIG. 13), Wk 10, elevated at baseline",88 U/L
same,"Total bilirubin, direct bilirubin, ALP, INR","[2]; one patient, treatment ceased from week 7 to week 10 (FIG. 13)",within normal limits
same,"Rise in ALT>3×ULN, intermittent compared to daily dosing","[2]; responders receiving intermittent miricorilant, all cohorts",less likely to have a rise in ALT>3×ULN
same,Transaminase levels,[2]; treatment non-responders (FIG. 10),did not experience a rise
same,Change in ALP or bilirubin levels,[3]; 600 or 900 mg daily,No significant change
same,Hy's Law criteria (total bilirubin >2x ULN and ALT or AST >3x ULN),"[3]; 600 or 900 mg daily, eDISH plot FIG. 5",No patient in this study satisfied the criteria for Hy's Law; also recorded: no patient met Hy's Law criteria
same,Transaminase elevations upon discontinuation of miricorilant,[3]; all patients,resolved rapidly
same,AST Max,"[3]; patient 208-4020, 900 mg, 30 days on treatment, baseline 45",772 U/L
same,ALT Max,"[3]; patient 208-4020, 900 mg, 30 days on treatment, baseline 69",1378 U/L
same,AST Max,"[3]; patient 211-4002, 900 mg, 31 days on treatment, baseline 32",113 U/L
same,ALT Max,"[3]; patient 211-4002, 900 mg, 31 days on treatment, baseline 50",386 U/L
same,AST Max,"[3]; patient 214-4007, 900 mg, 44 days on treatment, baseline 30",376 U/L
same,ALT Max,"[3]; patient 214-4007, 900 mg, 44 days on treatment, baseline 38",848 U/L
same,AST Max,"[3]; patient 233-4018, 600 mg, 34 days on treatment, baseline 26",391 U/L
same,ALT Max,"[3]; patient 233-4018, 600 mg, 34 days on treatment, baseline 41",955 U/L
same,Effect on liver enzymes ALT and AST,"[3]; patients with presumed NASH, 600 or 900 mg daily for 30-44 days",isolated rise; also recorded: increase

# From patent US12616698B2, “Methods for reducing liver fat and for treating fatty liver disorders” (Corcept Therapeutics Incorporated, priority 2021, dated 2026)
